What was measured:
5-lipoxygenase [1] = biological target: T1, 5-lipoxygenase (Rattus norvegicus, UniProt P12527); assay: Inhibition of soluble 5-lipoxygenase in RBL-1 cell extract (cytosol 5-lipoxygenase of rat basophile leukemia cells; RBL); format: biochemical; conditions: for IC50: RBL-1 cell extract; for activity in 5-lipoxygenase assay: qualitative
T1 construct: The supernatant solution (cytosol fraction) containing 5-lipoxygenase was stored; endogenous in cells; host or cells: RBL-1 rat basophilic leukemia cells, 105,000 x g supernatant (cytosol)
T1 sequence (P12527 1-673): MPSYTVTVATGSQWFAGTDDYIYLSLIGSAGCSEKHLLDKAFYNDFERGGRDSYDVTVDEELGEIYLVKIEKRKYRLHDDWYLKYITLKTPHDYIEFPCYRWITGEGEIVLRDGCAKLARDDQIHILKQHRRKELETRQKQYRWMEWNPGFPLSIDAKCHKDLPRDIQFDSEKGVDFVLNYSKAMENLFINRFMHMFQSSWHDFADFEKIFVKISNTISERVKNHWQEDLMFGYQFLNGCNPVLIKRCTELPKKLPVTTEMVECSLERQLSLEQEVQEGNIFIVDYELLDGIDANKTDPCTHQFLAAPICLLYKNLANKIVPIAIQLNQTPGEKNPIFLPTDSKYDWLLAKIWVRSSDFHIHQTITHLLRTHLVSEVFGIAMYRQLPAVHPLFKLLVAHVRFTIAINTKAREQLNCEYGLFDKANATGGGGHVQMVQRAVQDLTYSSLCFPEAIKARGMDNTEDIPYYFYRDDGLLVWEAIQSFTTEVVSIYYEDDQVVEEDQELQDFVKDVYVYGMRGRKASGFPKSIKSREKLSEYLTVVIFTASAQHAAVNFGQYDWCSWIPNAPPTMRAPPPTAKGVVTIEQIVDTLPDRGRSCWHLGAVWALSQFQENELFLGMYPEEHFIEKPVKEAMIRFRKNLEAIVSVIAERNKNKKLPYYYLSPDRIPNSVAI
Description: Effect of Compounds on Cytosol 5-Lipoxygenase of Rat Basophile Leukemia Cells
Washed rat RBL cells (4×108) were suspended in 20 ml of […] potassium phosphate buffer at pH 7.4 containing 10% ethylene glycol/1 mM EDTA (Buffer A). The cell suspension was sonicated at 20 KHz for 30 seconds, and the sonicate was centrifuged at 10,000 × g for 10 minutes, followed by further centrifugation at 105,000 × g for 1 hr. The supernatant solution (cytosol fraction) containing 5-lipoxygenase was stored at -70° C. Protein concentration was determined according to the procedure of Bradford (Bradford Dye Reagent) with bovine serum albumin as a standard.
For routine assay of 5-lipoxygenase the mixture contained 50 mM potassium phosphate buffer at pH 7.4, 2 mM CaCl2, 2 mM ATP, […] arachidonic acid (0.1 Ci) and enzyme ([…] of protein) in a final volume of […]. The reaction was carried out at 24° C. for 3 minutes. The mixture was extracted with 0.2 ml of an ice-cold mixture of ethyl ether:methanol: 0.2M citric acid (30:4:1). The extract was subjected to thin-layer chromatography at -10° C. in a solvent system of petroleum ether:ethyl ether:acetic acid (15:85:0.1). The silica gel zones corresponding to authentic arachidonic acid and its metabolites were scraped into scintillation vials for counting. The enzyme activity was expressed in terms of the amount of arachidonic acid oxygenated for 3 minutes.
Table 3 provides data for the inhibition of soluble 5-lipoxygenase in RBL-1 cell extract by racemic compound 202, as well as its enantiomers, compounds […], 234, and 236.

PAF receptor = conditions: cited from earlier work; for PAF receptor antagonism / inhibition of PAF binding: qualitative
[2] = tested on: PAF-induced rat cutaneous vascular permeability; conditions: 30 mg/kg body weight; orally active; cited from earlier work
5-lipoxygenase [3] = conditions: qualitative; cited from earlier work
platelets = conditions: active concentration; cited from earlier work
[4] = cited from earlier work
[5] = tested on: 5-lipoxygenase (ex vivo LTB4); assay: Ex vivo whole blood 5-lipoxygenase evaluation (ex vivo LTB4); format: in vivo; conditions: rat, 10 mg/kg po, 180'
Description: Ex-vivo Mouse and Rat Whole Blood 5-lipoxygenase Evaluation
CD-1 female mice, weighing 18-25 grams, and CD female rates, weighing 150-230 grams, were obtained from Charles River Labs. Compounds were dissolved in 0.5% DMSO in 0.9% NaCl for administration in mice (0.5 mg/ml) and in an alcohol Vehicle (2% benzyl alcohol, 1% ethanol, 40% PEG 300 10% propylene glycol, 47% of 5% dextrose plus 3.5% pluronic F-68 in DiH2 O) for use in rates (5 mg/ml). […] Heparinized whole blood (0.3 ml) was added into 1.5 ml Eppendorf centrifuge tub containing […] of 2 mM calcium ionophore A23187 (the final concentration of A23187 was […]). The sample was incubated for 30 minutes in a water bath of 37° C., and then centrifuged for 2 minutes. The plasma was diluted (×120) and assayed for LTB4 using EIA.
Table 3 provides data for the ex-vivo mouse and rat whole blood 5-lipoxygenase values on administration of racemic compound 202, as well as its enantiomers, compounds 216, 217, 234, and 236.

## C[C@@H](C#C[C@H]1CC[C@H](c2ccc(F)cc2)O1)N(O)C(N)=O
5-lipoxygenase [1]
  IC50: 2000 nM

## CN(O)C(=O)NCCCO[C@@H]1CC[C@H](c2ccc(F)cc2)O1 (relative stereo) [Compound 11, 2-(4-fluorophenyl)-5-[3-(N'-methyl-N'-hydroxyureidyl)propoxy] tetrahydrofuran]
5-lipoxygenase [1]
  activity in 5-lipoxygenase assay: showed activity in this assay

## C[C@H](C#C[C@H]1CC[C@H](c2ccc(F)cc2)O1)N(O)C(N)=O
5-lipoxygenase [1]
  IC50: 3100 nM

## CCCCCCCCCCCCCCCCCCNC(=O)OCC(COP(=O)([O-])OCC[n+]1ccsc1)OC (racemic) [CV-3988, rac-3-(N-n-octadecyl-carbamoyloxy-ω-methoxypropyl-2-thiazolioethyl phosphate]
PAF receptor
  PAF receptor antagonism / inhibition of PAF binding: PAF receptor antagonist properties

## CN(O)C(=O)NCCCO[C@@H]1CC[C@@H](c2ccc(F)cc2)O1 (relative stereo) [Compound 9, 2-(4-fluorophenyl)-5-[3-(N'-methyl-N'-hydroxyureidyl)propoxy] tetrahydrofuran]
5-lipoxygenase [1]
  activity in 5-lipoxygenase assay: showed activity in this assay

## COc1cc([C@H]2CC[C@H](c3cc(OC)c(OC)c(OC)c3)O2)cc(OC)c1OC (relative stereo) [L-652,731, trans-2,5-bis-(3,4,5-trimethoxyphenyl) tetrahydrofuran]
PAF receptor
  PAF receptor antagonism / inhibition of PAF binding: inhibits the binding of tritiated PAF to PAF receptor sites
PAF receptor; trans-L-652,731 vs cis-L-652,731
  relative potency, trans versus cis: approximately 1000 times
[2]
  inhibition of PAF-induced cutaneous vascular permeability: inhibit PAF-induced rat cutaneous vascular permeability
5-lipoxygenase [3]
  effect on 5-lipoxygenase: no effect on the enzyme 5-lipoxygenase

## COc1cc([C@H]2CC[C@H](c3cc(OC)c(OC)c(OC)c3)S2)cc(OC)c1OC (relative stereo) [L-653,150, trans-2,5-bis-(3,4,5-trimethoxyphenyl)tetrahydrothiophene]
PAF receptor
  PAF receptor antagonism / inhibition of PAF binding: potent PAF antagonist
5-lipoxygenase [3]
  effect on 5-lipoxygenase: moderate inhibitor of 5-lipoxygenase

## CCCOc1c(OC)cc([C@@H]2CC[C@@H](c3cc(OC)c(OC)c(OC)c3)O2)cc1S(C)(=O)=O (relative stereo) [L-659,989, trans-2-(3-methoxy-4-propoxyphenyl-5-methylsulfonyl)-5-(3,4,5-trimethoxyphenyl)tetrahydrofuran]
PAF receptor
  PAF receptor antagonism / inhibition of PAF binding: orally active, potent, competitive PAF receptor antagonist
PAF receptor; vs trans-L-652,731
  equilibrium inhibition constant relative to trans-L-652,731: 10 times

## 1-O-alkyl-2-acetyl-sn-glycerol-3-phosphorylcholine [PAF]
platelets
  potency (active at): 10^-12 to 10^-9 M
[4]
  plasma half life: 2 to 4 min

## C=CCC1=C[C@@]2(OC)C(=CC1=O)O[C@H](c1ccc(OC)c(OC)c1)[C@H]2C [kadsurenone]
PAF receptor
  PAF receptor antagonism / inhibition of PAF binding: potent, specific and competitive inhibitor of PAF activity at the receptor level

## C[C@H](C#C[C@@H]1CC[C@@H](c2ccc(F)cc2)O1)N(O)C(N)=O
5-lipoxygenase [1]
  IC50: 3800 nM

## NC(=O)N(O)CCCCC1CCC(c2ccc(F)cc2)O1 (stereo not shown)
5-lipoxygenase [1]
  IC50: 618 nM
[5]
  ex vivo LTB4 % (inhibition), last sub-column: 83%

## NC(=O)N(O)CCCC[C@@H]1CC[C@@H](c2ccc(F)cc2)O1
5-lipoxygenase [1]
  IC50: 1100 nM

## C[C@@H](C#C[C@@H]1CC[C@@H](c2ccc(F)cc2)O1)N(O)C(N)=O
5-lipoxygenase [1]
  IC50: 3510 nM

## CC(C#C[C@@H]1CC[C@@H](c2ccc(F)cc2)O1)N(O)C(N)=O (relative stereo)
5-lipoxygenase [1]
  IC50: 2800 nM
5-lipoxygenase [1]; dose 1.6 uM, read-out: RBL % inh.
  inhibition at 1.6 µM: 20%

## NC(=O)N(O)CCCO[C@@H]1CC[C@@H](c2ccc(F)cc2)O1 (relative stereo) [Compound 14, 2-(4-fluorophenyl)-5-(3-hydroxyureidylpropoxy) tetrahydrofuran]
5-lipoxygenase [1]
  activity in 5-lipoxygenase assay: showed activity in this assay

## NC(=O)N(O)CCCO[C@@H]1CC[C@H](c2ccc(F)cc2)O1 (relative stereo) [Compound 15, 2-(4-fluorophenyl)-5-(3-hydroxyureidylpropoxy) tetrahydrofuran]
5-lipoxygenase [1]
  activity in 5-lipoxygenase assay: showed activity in this assay

Reference: US5681966A, “Compounds and methods for the treatment of cardiovascular, inflammatory and immune disorders” (Cytomed, Inc., priority 1995, dated 1997)
